Source: patent publication US7943774B2 (priority 2008, dated 2011)

How the values were obtained:
Phytophthora infestans = assay: whole plant or invertebrate; assay type: in vivo; conditions: in Solanum lycopersicum, 168 h, read-out: efficacy
log P (pH2.3) = assay type: physicochemical; conditions: reversed-phase HPLC column (C18)
Plasmopara viticola = assay: Plasmopara test (grapevine)/protective; assay type: in vivo; conditions: 144 h, active compound concentration of 100 ppm, young grapevine plants sprayed, then inoculated, evaluation 6 days after inoculation, 0% = control, 100% = no infection, read-out: efficacy
Method: Plasmopara Test (Grapevine)/Protective
After the spray coating has dried on, the plants are inoculated with an aqueous spore suspension of Plasmopara viticola and then remain in an incubation cabin at about 20° C. and 100% relative atmospheric humidity for 1 day. The plants are then placed in a greenhouse at about 21° C. and an atmospheric humidity of about 90% for 4 days. The plants are then moistened and placed in an incubation cabin for 1 day.
Evaluation is carried out 6 days after the inoculation.

[1] = method [b]: LC-MS, acidic range, pH 2.7, 0.1% aqueous formic acid and acetonitrile

| SMILES | pest or weed control at 500 ppm (Phytophthora infestans) [%] | chromatographic logP (log P (pH2.3); [1]) | pest or weed control at 100 ppm (Plasmopara viticola) [%] | chromatographic logP (log P (pH2.3); method [c]: LC-MS, neutral range, pH 7.8, 0.001 molar aqueous ammonium bicarbonate and acetonitrile) | chromatographic logP (log P (pH2.3); method [a]: HPLC, acidic range, pH 2.3, 0.1% aqueous phosphoric acid and acetonitrile) |
| --- | --- | --- | --- | --- | --- |
| Cc1cc(C(F)(F)F)nn1CC(=O)N1CCC(c2nc(/C=C\CC(C)c3ccccc3)cs2)CC1 (stereo not shown) [Example I-3, 2-[5-Methyl-3-(trifluoromethyl)-1H-pyrazol-1-yl]-1-(4-{4-[(1Z)-4-phenylpent-1-en-1-yl]-1,3-thiazol-2-yl}piperidin-1-yl)ethanone] | ≥ 70 | 4.84 | – | – | – |
| Cc1cc(C(F)(F)F)nn1CC(=O)N1CCC(c2nc(/C=C/c3cccc4ccccc34)cs2)CC1 [Example I-27, 2-[5-Methyl-3-(trifluoromethyl)-1H-pyrazol-1-yl]-1-(4-{4-[(E)-2-(naphthalen-1-yl)ethenyl]-1,3-thiazol-2-yl}piperidin-1-yl)ethanone] | ≥ 70 | 4.63 | – | – | – |
| Cc1cc(C(F)(F)F)nn1CC(=O)N1CCC(c2nc(C#Cc3cccc4ccccc34)cs2)CC1 [Example I-50, 2-[5-Methyl-3-(trifluoromethyl)-1H-pyrazol-1-yl]-1-{4-[4-(naphthalen-1-ylethynyl)-1,3-thiazol-2-yl]piperidin-1-yl}ethanone] | ≥ 70 | 4.5 | ≥ 70 | 4.66 | – |
| Cc1cc(C(F)(F)F)nn1CC(=O)N1CCC(c2nc(C#Cc3cccnc3)cs2)CC1 [Example I-51, 2-[5-Methyl-3-(trifluoromethyl)-1H-pyrazol-1-yl]-1-{4-[4-(pyridin-3-ylethynyl)-1,3-thiazol-2-yl]piperidin-1-yl}ethanone] | ≥ 70 | 2.68 | ≥ 70 | – | – |
| Cc1cc(C(F)(F)F)nn1CC(=O)N1CCC(c2nc(C#CCc3ccccc3)cs2)CC1 [Example I-52, 2-[5-Methyl-3-(trifluoromethyl)-1H-pyrazol-1-yl]-1-{4-[4-(3-phenylprop-1-yn-1-yl)-1,3-thiazol-2-yl]piperidin-1-yl}ethanone] | ≥ 70 | 3.88 | – | – | – |
| Cc1cc(C(F)(F)F)nn1CC(=O)N1CCC(c2nc(CCc3ccccc3)cs2)CC1 [Example I-53, 2-[5-Methyl-3-(trifluoromethyl)-1H-pyrazol-1-yl]-1-{4-[4-(2-phenylethyl)-1,3-thiazol-2-yl]piperidin-1-yl}ethanone] | ≥ 70 | – | ≥ 70 | – | 3.79 |
| Cc1cc(C(F)(F)F)nn1CC(=O)N1CCC(c2nc(CCCC(C)c3ccccc3)cs2)CC1 (stereo not shown) [Example I-80, 2-[5-Methyl-3-(trifluoromethyl)-1H-pyrazol-1-yl]-1-{4-[4-(4-phenylpentyl)-1,3-thiazol-2-yl]piperidin-1-yl}ethanone] | ≥ 70 | 4.77 | ≥ 70 | – | – |
| Cc1cc(C(F)(F)F)nn1CC(=O)N1CCC(c2nc(CCc3cccc4ccccc34)cs2)CC1 [Example I-81, 2-[5-Methyl-3-(trifluoromethyl)-1H-pyrazol-1-yl]-1-(4-{4-[2-(naphthalen-1-yl)ethyl]-1,3-thiazol-2-yl}piperidin-1-yl)ethanone] | ≥ 70 | 4.37 | ≥ 70 | – | – |
| Cc1cc(C(F)(F)F)nn1CC(=S)N1CCC(c2nc(/C=C/c3ccccc3)cs2)CC1 [Example I-93, 2-[5-Methyl-3-(trifluoromethyl)-1H-pyrazol-1-yl]-1-(4-{4-[(E)-2-phenylethenyl]-1,3-thiazol-2-yl}piperidin-1-yl)ethanethione] | ≥ 70 | 4.65 | ≥ 70 | – | – |
| Cc1cc(C(F)(F)F)nn1CC(=O)N1CCC(c2nc(C#C[Si](C)(C)C)cs2)CC1 [Example I-98, 2-[5-Methyl-3-(trifluoromethyl)-1H-pyrazol-1-yl]-1-(4-{4-[(trimethylsilyl)ethynyl]-1,3-thiazol-2-yl}piperidin-1-yl)ethanone] | ≥ 70 | 4.28 | ≥ 70 | – | – |
| COc1ccc(C#Cc2csc(C3CCN(C(=O)Cn4nc(C(F)(F)F)cc4C)CC3)n2)cc1 [Example I-100, 1-(4-{4-[(4-Methoxyphenyl)ethynyl]-1,3-thiazol-2-yl}piperidin-1-yl)-2-[5-methyl-3-(trifluoromethyl)-1H-pyrazol-1-yl]ethanone] | ≥ 70 | 3.79 | ≥ 70 | – | – |
| COc1ccccc1C#Cc1csc(C2CCN(C(=O)Cn3nc(C(F)(F)F)cc3C)CC2)n1 [Example I-103, 1-(4-{4-[(2-Methoxyphenyl)ethynyl]-1,3-thiazol-2-yl}piperidin-1-yl)-2-[5-methyl-3-(trifluoromethyl)-1H-pyrazol-1-yl]ethanone] | ≥ 70 | 3.67 | ≥ 70 | – | – |
